{"source": "patent US11175296B2", "about": "“Methods of diagnosing and treating cancer comprising ME1” (Washington University, priority 2016, dated 2021)", "key": {"SYO-1 xenograft tumor": {"test_system": "SYO-1 xenograft tumor", "assay": "SYO-1 xenograft in nude athymic mice, tumor size", "format": "in vivo", "conditions": "1 mg/day for 12 days", "procedure": "Sixty nude athymic mice (Nu/J homozygous Cat#002019, The Jackson Lab) were xenografted with 1×10^6 SYO-1 cells that had been resuspended in 1×PBS 30% Matrigel (Corning, Inc., Cat# CB-40234). Mice were anesthetized with 1-2% isofluorane and injected at the left flank. The mice were observed until each tumor size was 100 mm3 by caliper measurement, at which point each individual mouse began daily injections of DHEA 1 mg/30 uL ( ), SWV-49s 3.75 mM, SWV-273.75 mM, SV-119 3.75 mM, SWV-27/SV-119 3.75 mM, or control vehicle Cremiphor. All agents were suspended in Cremiphor. Treatment or placebo injections continued for a total of 12 days. Daily caliper and weight measurements for a total of 30 days were undertaken for each cohort. Mice were sacrificed appropriately by “ ” guidelines and after the conclusion of the in vivo experiment."}, "[1]": {"test_system": "SYO-1 and FUJI cell lines", "assay": "Treatment with G6PD inhibitor DHEA and DHEA analogs, cell death", "format": "cell-based", "conditions": "over a course of 48 hours", "procedure": "(§1) For FACS analysis, cell lines were plated at 200,000 cells per well, and incubated in various culture conditions. Media was collected in a FACS tube and samples were washed with PBS. The PBS was transferred into the FACS tube, and 0.5 mL 0.05% Trypsin/EDTA was added to each well. Samples were incubated for 5 minutes at 37° C., and diluted with 0.5 mL complete media before being transferred to the FACS tube. Wells were washed once with PBS, transferred to the FACS tube, and centrifuged at 800 g for 5 minutes at room temperature. The supernatant was aspirated off, and pellets were resuspended in 200 μL PBS (unstained control samples used for gating) or 200 μL of 1 μg/mL propidium iodide dissolved in PBS. Samples were run on a FAScan instrument and fluorescence analyzed on the Blue FL2 channel. Data was further analyzed using FloJo software.\n(§2) For the evaluation of glucose deprivation alone and under additional conditions, cell lines were plated in a 6-well format at 200,000 cells per well on day 1. SYO was cultured and plated in Dulbecco's Modified Eagle Medium (DMEM) with 10% FBS and penicillin/streptomycin (include additional glucose concentration), which FUJI was cultured in RPMI medium with 10% FBS and penicillin/streptomycin. […] Samples were then ran and fluorescence analyzed via Blue FL2 channel on a FAScan instrument. […]"}, "[2]": {"test_system": "SYO-1 and FUJI synovial sarcoma (SS) cell lines", "assay": "Pretreatment before glucose deprivation, protection from cell death (PI FACS)", "format": "cell-based", "procedure": "During the routine cell culture splitting procedure, cell lines were plated in 6 well plates at 200,000 cells in 2 mL media. Samples were incubated at 37° C. for duration of experiment. Samples were washed with PBS and detached with 0.05% Trypsin/EDTA. Aliquots were diluted 1:2 with Trypan Blue (Sigma) and a viable cell count was obtained using a hemacytometer. For glucose and glutamine deprivation experiments, 200,000 cells were plated in standard media and incubated overnight. Samples were washed 3 times with 1×DPBS (Gibco), and the media was changed to DMEM (control samples) or glucose/glutamine free DMEM (experimental samples). Cell counts were taken as previously described at 2, 4, 6, and 8 hours after the media was changed, and normalized to cell counts taken from growth samples counted at the time the media was changed.\nas §1\nCell viability was determined in tissue culture experiments by the trypan blue dye exclusion test. For the evaluation of glucose deprivation, cell lines were plated in a 6-well format at 200,000 cells per well on day 1. SYO was cultured and plated in Dulbecco's Modified Eagle Medium (DMEM) with 10% FBS and penicillin/streptomycin (include additional glucose concentration), which FUJI was cultured in RPMI medium with 10% FBS and penicillin/streptomycin. The following day, glucose-containing media was removed, and each well was washed with 1-2 mL of phosphate buffered saline (PBS) three times to ensure elimination of residual glucose. Glucose-free media was then replaced in each well for the duration of the experiment. At the end point, the glucose-free media was removed and each well washed with 1 mL of PBS. One-half milliliter of trypsin 0.05% was then applied to each well, later aggressively resuspended in 0.5 mL of media for a total cell volume of 1 mL. Twenty microliters of each well was then counted via hemocytometer, excluding those non-viable cells that were positive for trypan blue uptake and/or fragmented.\nFor the evaluation of glucose deprivation alone and under additional conditions, cell lines were plated in a 6-well format at 200,000 cells per well on day 1. SYO was cultured and plated in Dulbecco's Modified Eagle Medium (DMEM) with 10% FBS and penicillin/streptomycin (include additional glucose concentration), which FUJI was cultured in RPMI medium with 10% FBS and penicillin/streptomycin. The following day, glucose-containing media was removed, and each well was washed with 1-2 mL of phosphate buffered saline (PBS) three times to ensure elimination of residual glucose. Glucose-free media was then replaced in each well for the duration of the experiment. […]"}, "[3]": {"test_system": "SYO-1 and FUJI cell lines", "assay": "Erastin / sigma-2 erastin treatment, cell death", "format": "cell-based", "conditions": "in as little as 8 hours, compared to control lines SKLMS-1 and MG63", "procedure": "as §1, §2"}, "[4]": {"assay": "Phase I open-label study of olaratumab and doxorubicin in patients with advanced soft tissue sarcoma (PK, DDI, safety)", "procedure": "Patients with metastatic or locally advanced STS not amenable to treatment with surgery or curative radiotherapy, aged years with an ECOG PS of 0-2 and documented LVE fraction ≥50% were included. The primary objective was to assess the effect of Olara on the PK of Dox. Secondary objectives were to further characterize the PK and safety profiles of Olara alone and in combination with Dox. Drug-drug interaction (DDI) was assessed in 21-day cycles, where patients received each drug alone (Cycle 1) then in combination (Cycle 2). In Cycles 3-8, patients with clinical benefit could continue treatment with Olara+Dox. 15-mg/kg Olara was given IV over ˜60 min; 75-mg/m^2 Dox was given IV over ˜15 min."}, "[5]": {"conditions": "pretreatment one hour prior to glucose-free media change"}}, "note": "Where a SMILES comes first, the peptide text is derived from it. The star is where a group is joined. Cbz = O=C(OCc1ccccc1)*; CH2F = FC*", "data": [{"compound": "C[C@]12CC[C@H](O)CC1=CC[C@@H]1[C@@H]2CC[C@]2(C)C(=O)CC[C@@H]12", "note": "[DHEA, dehydroepiandrosterone]", "values": [{"measurement": "tumor size", "setting": "SYO-1 xenograft tumor", "result": "dramatic decrease in tumor size"}, {"measurement": "tolerability of dose and regimen", "setting": "SYO-1 xenograft tumor; murine model", "result": "well-tolerated"}, {"measurement": "cell death", "setting": "[1]", "result": "varying but significant cell death"}]}, {"compound": "CC(=O)N[C@@H](CS)C(=O)O", "note": "[NAC]", "values": [{"measurement": "protection from cell death under glucose deprivation", "setting": "[2]; 10 mM, pretreated one hour prior to glucose deprivation, 2 and 6 hours", "result": "protection from cell death was noted"}]}, {"compound": "CC(NC(=O)C(NC(=O)OCc1ccccc1)C(C)C)C(=O)NC(CC(=O)O)C(=O)CF", "note": "(stereo not drawn) [ZVAD] (Cbz-Val-Ala-Asp-CH2F; configuration not given here)", "values": [{"measurement": "protection from cell death under glucose deprivation", "setting": "[2]; [5]", "result": "did not result in protection from cell death"}]}, {"compound": "Cc1c(O)c(=O)ccn1C", "note": "[deferiprone]", "values": [{"measurement": "protection from cell death under glucose deprivation", "setting": "[2]; pretreated one hour prior to glucose deprivation, acute time course of 2-6 hours", "result": "significant protection from cell death"}]}, {"compound": "CCOc1ccccc1-n1c(C(C)N2CCN(C(=O)COc3ccc(Cl)cc3)CC2)nc2ccccc2c1=O", "note": "(stereo not shown) [erastin]", "values": [{"measurement": "cell death", "setting": "[3]", "result": "approximately 40%"}]}, {"compound": "CCOC(=O)c1ccc(NC2CCCCC2)c(N)c1", "note": "[ferrostatin]", "values": [{"measurement": "protection from cell death under glucose deprivation", "setting": "[2]; [5]", "result": "significant protection from glucose-deprivation mediated cell death"}]}, {"compound": "CN1C(=O)C(Cc2c[nH]c3ccccc23)NC1=S", "note": "(stereo not shown) [necrostatin]", "values": [{"measurement": "protection from cell death under glucose deprivation", "setting": "[2]; [5]", "result": "did not result in protection from cell death"}]}, {"compound": "Olaratumab", "values": [{"measurement": "effect on systemic exposure to Dox", "setting": "[4]; IV infusion, both agents given in combination", "result": "did not have a clinically relevant effect"}, {"measurement": "CL", "setting": "[4]; human, in vivo", "result": 0.0218, "unit": "L/h"}, {"measurement": "mean CL", "setting": "[4]; human, in vivo", "result": 0.0259, "unit": "L/h"}, {"measurement": "mean Cmax", "setting": "[4]; human, in vivo", "result": 393, "unit": "µg/mL"}, {"measurement": "median tmax post start of infusion", "setting": "[4]; human, in vivo", "result": "~2.8", "unit": "h"}, {"measurement": "time of Cmax post start of infusion", "setting": "[4]; human, in vivo", "result": "~2", "unit": "h"}, {"measurement": "mean Cmax", "setting": "[4]; human, in vivo, iv, 15 mg/kg", "result": 293, "unit": "µg/mL"}]}]}
